In general, IC50 refers to the point on the concentration scale where inhibition reaches its midpoint. Low readings indicate inhibition by little substance, high ones a need for much substance.

Sequence of GST tagged wild type TGFβR1 (P36897 34-503): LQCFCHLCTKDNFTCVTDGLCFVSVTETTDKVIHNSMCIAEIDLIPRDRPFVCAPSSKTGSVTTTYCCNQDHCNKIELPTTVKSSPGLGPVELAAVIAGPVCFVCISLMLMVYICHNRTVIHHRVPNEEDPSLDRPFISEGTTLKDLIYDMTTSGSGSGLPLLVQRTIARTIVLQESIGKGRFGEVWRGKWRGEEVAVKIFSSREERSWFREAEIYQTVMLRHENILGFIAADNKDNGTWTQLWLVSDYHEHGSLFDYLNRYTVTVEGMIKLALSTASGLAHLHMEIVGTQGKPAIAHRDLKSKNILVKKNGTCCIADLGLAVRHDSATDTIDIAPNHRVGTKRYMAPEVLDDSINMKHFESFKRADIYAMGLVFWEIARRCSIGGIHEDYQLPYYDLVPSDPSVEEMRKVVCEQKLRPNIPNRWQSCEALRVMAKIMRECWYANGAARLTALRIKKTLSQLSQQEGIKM
Sequence of HIS-TGFβR1 T204D (P36897 34-503 T204D): as the sequence (P36897 34-503) above, with T171D counted along it

The target in the first assay is GST tagged wild type TGFβR1 (Homo sapiens (Human), UniProt P36897). The assay is described as follows: HTRF probe-displacement assay, GST tagged wild type TGFβR1. The format is binding. The settings on record: GST tagged wild type proteins were used instead of HIS-tagged proteins. On the procedure:
Compounds were dissolved at 10 mM in dimethylsulfoxide (DMSO) and evaluated at eleven concentrations. IC50 values were derived by non-linear regression analysis.
A general note: In TR-FRET formats the signal depends on donor and acceptor labels being close together.
`Cc1ccnc(-c2nc(Nc3ccncc3F)c3cccn3n2)c1` [Example 62, 3-fluoro-N-[2-(4-methylpyridin-2-yl)pyrrolo[2,1-f][1,2,4]triazin-4-yl]pyridin-4-amine]: the IC50 came to 1.7 µM.

With `O=C(NCCN1CCS(=O)(=O)CC1)c1cnccc1Nc1nc(-c2ccccn2)nn2cccc12` [Example 147, N-[2-(1,1-dioxo-1,4-thiomorpholin-4-yl)ethyl]-4-{[2-(pyridin-2-yl)pyrrolo[2,1-f][1,2,4]triazin-4-yl]amino}pyridine-3-carboxamide], the IC50 is 2.6 µM.

As for `Cc1nc(-c2nc(Nc3ccncc3F)c3cccn3n2)ccc1F` [Example 74, 3-fluoro-N-[2-(5-fluoro-6-methylpyridin-2-yl)pyrrolo[2,1-f][1,2,4]triazin-4-yl]pyridin-4-amine], the IC50 amounted to 0.0061 µM.

Regarding `CN1CCN(Cc2ccn3nc(-c4cccc(C(F)F)n4)nc(Nc4ccncc4F)c23)CC1` [Example 122, N-{2-[6-(difluoromethyl)pyridin-2-yl]-5-[(4-methylpiperazin-1-yl)methyl]pyrrolo[2,1-f][1,2,4]triazin-4-yl}-3-fluoropyridin-4-amine], the IC50 was found to be 0.006 µM.

The next assay has as its target HIS-TGFβR1 T204D (Homo sapiens (Human), UniProt P36897, T204D). Put plainly: HTRF probe-displacement assay, HIS-TGFβR1 T204D. Particulars: 1 hour at room temperature. Format: binding.
As for `OC1(CCNCc2ccn3nc(-c4ccccn4)nc(Nc4ccncc4F)c23)CCCC1` [Example 240, 1-{2-[({4-[(3-fluoropyridin-4-yl)amino]-2-(pyridin-2-yl)pyrrolo[2,1-f][1,2,4]triazin-5-yl}methyl)amino]ethyl}cyclopentan-1-ol], the IC50 is 0.0007 µM.

Compound `O=C(NCCOCCO)c1cnccc1Nc1nc(-c2cccc(C(F)F)n2)nn2cccc12` [Example 174, 4-({2-[6-(difluoromethyl)pyridin-2-yl]pyrrolo[2,1-f][1,2,4]triazin-4-yl}amino)-N-[2-(2-hydroxyethoxy)ethyl]pyridine-3-carboxamide] came in with an IC50 of 0.023 µM.

The compound `CCC[C@@H](CO)NCc1ccn2nc(-c3ccccn3)nc(Nc3ccncc3F)c12` [Example 273, (2S)-2-[({4-[(3-fluoropyridin-4-yl)amino]-2-(pyridin-2-yl)pyrrolo[2,1-f][1,2,4]triazin-5-yl}methyl)amino]pentan-1-ol] had an IC50 of 0.0016 µM.

Compound `O=C(NCc1nc[nH]n1)c1cnccc1Nc1nc(-c2cccc(C(F)F)n2)nn2cccc12` [Example 191, 4-({2-[6-(difluoromethyl)pyridin-2-yl]pyrrolo[2,1-f][1,2,4]triazin-4-yl}amino)-N-(1H-1,2,4-triazol-3-ylmethyl)pyridine-3-carboxamide] came in with a half-inhibitory concentration (IC50) of 0.064 µM.

As for `Fc1cnccc1Nc1nc(-c2ccccn2)nn2ccc(CN3CCC(F)(F)CC3)c12` [Example 27, N-{5-[(4,4-difluoropiperidin-1-yl)methyl]-2-(pyridin-2-yl)pyrrolo[2,1-f][1,2,4]triazin-4-yl}-3-fluoropyridin-4-amine], the IC50 worked out at 0.0013 µM.

In the case of `COc1cccc(-c2nc(Nc3ccncc3F)c3c(C(O)CNCCN4CCCCC4)ccn3n2)n1` (stereo not drawn) [Example 130, 1-{4-[(3-fluoropyridin-4-yl)amino]-2-(6-methoxypyridin-2-yl)pyrrolo[2,1-f][1,2,4]triazin-5-yl}-2-{[2-(piperidin-1-yl)ethyl]amino}ethan-1-ol], the IC50 is 0.54 µM.

For `COc1cccc(-c2nc(Nc3ccnc(NCC(C)(C)O)c3)c3c(C)ccn3n2)n1` [Example 138, 1-[(4-{[2-(6-methoxypyridin-2-yl)-5-methylpyrrolo[2,1-f][1,2,4]triazin-4-yl]amino}pyridin-2-yl)amino]-2-methylpropan-2-ol], the IC50 came out at 6.6 µM.

In turn, `O=C(NCCCN1CCCC1=O)c1cnccc1Nc1nc(-c2ccccn2)nn2cccc12` [Example 149, N-[3-(2-oxopyrrolidin-1-yl)propyl]-4-{[2-(pyridin-2-yl)pyrrolo[2,1-f][1,2,4]triazin-4-yl]amino}pyridine-3-carboxamide] came in with an IC50 of 0.049 µM.

In turn, `O=C(NCCC(F)(F)F)c1cnccc1Nc1nc(-c2cccc(C(F)F)n2)nn2cccc12` [Example 202, 4-({2-[6-(difluoromethyl)pyridin-2-yl]pyrrolo[2,1-f][1,2,4]triazin-4-yl}amino)-N-(3,3,3-trifluoropropyl)pyridine-3-carboxamide] yielded an IC50 of 0.14 µM.

On to `O[C@@H]1CCN(Cc2ccn3nc(-c4ccccn4)nc(Nc4ccncc4F)c23)C1` [Example 233, (3R)-1-({4-[(3-fluoropyridin-4-yl)amino]-2-(pyridin-2-yl)pyrrolo[2,1-f][1,2,4]triazin-5-yl}methyl)pyrrolidin-3-ol], for which the IC50 stood at 0.00085 µM.

`O=C(NC1CCOC1)c1cnccc1Nc1nc(-c2cccc(C(F)F)n2)nn2cccc12` (stereo not drawn) [Example 177, 4-({2-[6-(difluoromethyl)pyridin-2-yl]pyrrolo[2,1-f][1,2,4]triazin-4-yl}amino)-N-(oxolan-3-yl)pyridine-3-carboxamide] had an IC50 of 0.021 µM.

`Cc1cccc(-c2nc(Nc3ccncc3C(=O)NC3CCOCC3)c3cccn3n2)n1` [Example 164, 4-{[2-(6-methylpyridin-2-yl)pyrrolo[2,1-f][1,2,4]triazin-4-yl]amino}-N-(oxan-4-yl)pyridine-3-carboxamide] displayed an IC50 of 0.075 µM.

For `CC(=O)Nc1cc(Nc2nc(-c3cccc(C(F)F)n3)nn3cccc23)c(F)cn1` [Example 225, N-[4-({2-[6-(difluoromethyl)pyridin-2-yl]pyrrolo[2,1-f][1,2,4]triazin-4-yl}amino)-5-fluoropyridin-2-yl]acetamide], the IC50 was 0.0051 µM.

With `Fc1cnccc1Nc1nc(-c2cc(Cl)ccn2)nn2cccc12` [Example 63, N-[2-(4-chloropyridin-2-yl)pyrrolo[2,1-f][1,2,4]triazin-4-yl]-3-fluoropyridin-4-amine], the concentration for half-maximal inhibition (IC50) amounted to 0.15 µM.

With `O[C@H]1CCN(Cc2ccn3nc(-c4ccccn4)nc(Nc4ccncc4F)c23)C1` [Example 232, (3S)-1-({4-[(3-fluoropyridin-4-yl)amino]-2-(pyridin-2-yl)pyrrolo[2,1-f][1,2,4]triazin-5-yl}methyl)pyrrolidin-3-ol], the IC50 was 0.00093 µM.

As to `CC1(NCc2ccn3nc(-c4ccccn4)nc(Nc4ccncc4F)c23)CCC1` [Example 241, 3-fluoro-N-(5-{[(1-methylcyclobutyl)amino]methyl}-2-(pyridin-2-yl)pyrrolo[2,1-f][1,2,4]triazin-4-yl)pyridin-4-amine], the concentration for half-maximal inhibition (IC50) was 0.00027 µM.

For the compound `O=C(CN1CC[C@@H](O)C1)Nc1cc(Nc2nc(-c3cccc(C(F)(F)F)n3)nn3cccc23)ccn1` [Example 327, 2-[(3R)-3-hydroxypyrrolidin-1-yl]-N-[4-({2-[6-(trifluoromethyl)pyridin-2-yl]pyrrolo[2,1-f][1,2,4]triazin-4-yl}amino)pyridin-2-yl]acetamide], the IC50 is 0.0003 µM.

Compound `Fc1cnccc1Nc1nc(-c2ccc[nH]2)nn2cccc12` [Example 89, 3-fluoro-N-[2-(1H-pyrrol-2-yl)pyrrolo[2,1-f][1,2,4]triazin-4-yl]pyridin-4-amine] had a half-inhibitory concentration (IC50) of 0.19 µM.

`COc1cccc(-c2nc(Nc3ccncc3F)c3c(C(O)CNCCN4CCS(=O)(=O)CC4)ccn3n2)n1` (stereo not drawn) [Example 131, 4-{2-[(2-{4-[(3-fluoropyridin-4-yl)amino]-2-(6-methoxypyridin-2-yl)pyrrolo[2,1-f][1,2,4]triazin-5-yl}-2-hydroxyethyl)amino]ethyl}-1,4-thiomorpholine-1,1-dione] had an IC50 of 0.056 µM.

`C[C@@H]1CN(CCNC(=O)c2cnccc2Nc2nc(-c3ccccn3)nn3cccc23)C[C@H](C)O1` [Example 146, N-{2-[cis-2,6-dimethylmorpholin-4-yl]ethyl}-4-{[2-(pyridin-2-yl)pyrrolo[2,1-f][1,2,4]triazin-4-yl]amino}pyridine-3-carboxamide] registered an IC50 of 0.17 µM.

The values above are taken from patent publication US10336761B2, “TGFβ receptor antagonist” (BRISTOL-MYERS SQUIBB COMPANY, priority 2015, dated 2019).
